This note sets out measurements from PubChem BioAssay AID330 (DTP/NCI, 2004).

The assay has as its system P388 leukemia ip, CD2F1 mice, survival T/C. Briefly: NCI In Vivo Anticancer Drug Screen. Data for tumor model P388 Leukemia (intraperitoneal) in CD2F1 (CDF1) mice. As to conditions: endpoint: median survival time, higher = longer survival. A digest of the protocol:
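Mice carrying the transplanted tumor received test compound or vehicle. Survival was recorded in each group, and the value is the treated-group measurement divided by that of the vehicle-treated control group.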

Where [1] appears, read: dose: 100.0 mg/kg/injection, schedule: Q04DX003 (ip), vehicle: saline with Tween-80.
The mark [2] stands for this setting: dose: 200.0 mg/kg/injection, schedule: Q04DX003 (ip), vehicle: saline with Tween-80.
Where [3] appears, read: dose: 50.0 mg/kg/injection, schedule: Q01DX009 (ip), vehicle: Klucel (hydroxypropylcellulose) (HPC).
The mark [4] stands for this setting: dose: 100.0 mg/kg/injection, schedule: Q01DX009 (ip), vehicle: Klucel (hydroxypropylcellulose) (HPC).
Where [5] appears, read: dose: 200.0 mg/kg/injection, schedule: Q01DX009 (ip), vehicle: Klucel (hydroxypropylcellulose) (HPC).
Setting [6] is: dose: 25.0 mg/kg/injection, schedule: Q01DX005 (ip), vehicle: Klucel (hydroxypropylcellulose) (HPC).
[7] abbreviates: dose: 50.0 mg/kg/injection, schedule: Q01DX005 (ip), vehicle: Klucel (hydroxypropylcellulose) (HPC).
The mark [8] stands for this setting: dose: 100.0 mg/kg/injection, schedule: Q01DX005 (ip), vehicle: Klucel (hydroxypropylcellulose) (HPC).
Setting [9] is: dose: 200.0 mg/kg/injection, schedule: Q01DX005 (ip), vehicle: Klucel (hydroxypropylcellulose) (HPC).
Setting [10] is: dose: 50.0 mg/kg/injection, schedule: Q01DX009 (ip), vehicle: saline with Tween-80.
Setting [11] is: dose: 100.0 mg/kg/injection, schedule: Q01DX009 (ip), vehicle: saline with Tween-80.
[12] abbreviates: dose: 200.0 mg/kg/injection, schedule: Q01DX009 (ip), vehicle: saline with Tween-80.
The mark [13] stands for this setting: dose: 50.0 mg/kg/injection, schedule: Q01DX005 (ip), vehicle: saline with Tween-80.
The mark [14] stands for this setting: dose: 100.0 mg/kg/injection, schedule: Q01DX005 (ip), vehicle: saline with Tween-80.
[15] abbreviates: dose: 200.0 mg/kg/injection, schedule: Q01DX005 (ip), vehicle: saline with Tween-80.

SMILES strings stand for the structures. Values joined by “and” are separate entries in the source; they are usually repeats but may differ in a detail not shown here. Equal values may be shown once. Toxic doses and inconclusive results are not listed.

In the case of `CN(C)CC(CN(C)C)C(=O)c1ccc(Oc2ccc(Cl)cc2)cc1`, the T/C (dose: 1.88 mg/kg/injection, schedule: Q01DX005 (ip), vehicle: saline) is 110 % of control; the T/C (dose: 3.75 mg/kg/injection, schedule: Q01DX005 (ip), vehicle: saline) is 116 % of control; the T/C (dose: 7.5 mg/kg/injection, schedule: Q01DX005 (ip), vehicle: saline) is 107 % of control and 112 % of control.
`N=c1ncn(C2OC(CO)C(O)C2O)c2nc(Br)[nH]c12` (stereo not drawn): the T/C (dose: 25.0 mg/kg/injection, schedule: Q04DX003 (ip), vehicle: saline with Tween-80) is 100 % of control; the T/C (dose: 50.0 mg/kg/injection, schedule: Q04DX003 (ip), vehicle: saline with Tween-80) is 105 % of control; the T/C under setting [1] was 100 % of control; the T/C under setting [2] is 98 % of control.
On to `N#CC1C(=O)NC(=O)C(C#N)C1c1ccccc1` (stereo not drawn), for which the T/C by setting is: under setting [3], 102 % of control; under setting [4], 101 % of control; under setting [5], 100 % of control.
On the same counts, the results for `O=C(C(Br)(Br)Br)C(Br)(Br)c1ccccc1` are 101 % of control, 101 % of control and 99 % of control.
As to `CCOC(=O)COc1cc2c(cc1Cc1ccc3c(c1)OCO3)OCO2`, the T/C is 96 % of control (dose: 12.5 mg/kg/injection, schedule: Q01DX005 (ip), vehicle: Klucel (hydroxypropylcellulose) (HPC)); 96 % of control under setting [6]; 101 % of control under setting [7]; 98 % of control under setting [8]; 99 % of control under setting [9].
On to `COC(=O)C1=C(/C=C/C(C)=O)NC(C)=C(C(=O)OC(C)C)C1c1ccccc1Cl` (stereo not drawn), for which the T/C by setting is: under setting [6], 105 % of control; under setting [7], 99 % of control and 108 % of control and 96 % of control; under setting [8], 102 % of control and 104 % of control and 113 % of control; under setting [9], 108 % of control and 116 % of control.
In the case of `CC1(C)OC2C(COC(c3ccccc3)(c3ccccc3)c3ccccc3)OC(n3ccc(=O)[nH]c3=O)C2O1` (stereo not drawn), the T/C under setting [7] was 97 % of control, the T/C under setting [8] is 89 % of control and the T/C under setting [9] is 88 % of control.
On to `Cc1cc(O)c(C(c2ccncc2)c2c(O)cc(C)[nH]c2=O)c(=O)[nH]1`, for which the T/C was 102 % of control under setting [10], 95 % of control under setting [11] and 94 % of control under setting [12].
In the case of `C=C1C(=O)C23CC[C@H]4C(C)(CCC[C@]4(C)C(=O)O)[C@@H]2CCC1C3` (stereo partly drawn), the T/C (dose: 3.75 mg/kg/injection, schedule: Q01DX005 (ip), vehicle: Klucel (hydroxypropylcellulose) (HPC)) is 86 % of control; the T/C (dose: 7.5 mg/kg/injection, schedule: Q01DX005 (ip), vehicle: Klucel (hydroxypropylcellulose) (HPC)) is 91 % of control; the T/C (dose: 15.0 mg/kg/injection, schedule: Q01DX005 (ip), vehicle: Klucel (hydroxypropylcellulose) (HPC)) is 87 % of control; the T/C (dose: 30.0 mg/kg/injection, schedule: Q01DX005 (ip), vehicle: Klucel (hydroxypropylcellulose) (HPC)) is 98 % of control.
With `COC(=O)n1c(=O)oc2ccc(Br)cc21`, the T/C by setting is: under setting [7], 104 % of control; under setting [8], 106 % of control; under setting [9], 102 % of control.
On to `CCOC(=O)C1C(=O)CN(C(=O)OC)C1C(=O)OCC` (stereo not drawn), for which the T/C was 99 % of control under setting [13], 95 % of control under setting [14] and 95 % of control under setting [15].
For the compound `O=C1CS(=O)(=O)C(c2ccccn2)N1CCN1C(=O)CS(=O)(=O)C1c1ccccn1` (stereo not drawn), the T/C was 100 % of control and 101 % of control (dose: 100.0 mg/kg/injection, schedule: Q01DX001 (ip), vehicle: saline with Tween-80); 90 % of control (dose: 100.0 mg/kg/injection, schedule: Q04DX002 (ip), vehicle: saline with Tween-80); 92 % of control and 97 % of control (dose: 200.0 mg/kg/injection, schedule: Q01DX001 (ip), vehicle: saline with Tween-80); 98 % of control (dose: 200.0 mg/kg/injection, schedule: Q04DX002 (ip), vehicle: saline with Tween-80); 89 % of control and 101 % of control (dose: 400.0 mg/kg/injection, schedule: Q01DX001 (ip), vehicle: saline with Tween-80); 91 % of control (dose: 400.0 mg/kg/injection, schedule: Q04DX002 (ip), vehicle: saline with Tween-80).
With `C[Si](C)(C)Cn1ccc2ccccc21`, the T/C is 100 % of control under setting [13], 105 % of control under setting [14] and 108 % of control under setting [15].
In the case of `O=C1C=CC(=O)N1c1ccc(I)cc1Cl`, the T/C by setting is: under setting [10], 106 % of control; under setting [11], 104 % of control; under setting [12], 96 % of control.
As to `CC(/C=C/c1cccc(C)c1)=N\NC(N)=O`, the T/C runs as follows: (dose: 60.0 mg/kg/injection, schedule: Q01DX005 (ip), vehicle: Klucel (hydroxypropylcellulose) (HPC)) 107 % of control; (dose: 120.0 mg/kg/injection, schedule: Q01DX005 (ip), vehicle: Klucel (hydroxypropylcellulose) (HPC)) 104 % of control; (dose: 240.0 mg/kg/injection, schedule: Q01DX005 (ip), vehicle: Klucel (hydroxypropylcellulose) (HPC)) 115 % of control.
For `O=c1[nH]cc(Cn2cnc3ncccc3c2=O)c(=O)[nH]1`, the T/C (dose: 100.0 mg/kg/injection, schedule: Q01DX001 (ip), vehicle: suspension in saline) was 93 % of control; the T/C (dose: 200.0 mg/kg/injection, schedule: Q01DX001 (ip), vehicle: suspension in saline) is 105 % of control; the T/C (dose: 400.0 mg/kg/injection, schedule: Q01DX001 (ip), vehicle: suspension in saline) was 112 % of control.
Turning to `O=C1/C(=C/c2cccc(O)c2O)SC(=S)N1Cc1ccco1`, the T/C is, setting by setting: under setting [7], 102 % of control; under setting [8], 106 % of control; under setting [9], 103 % of control.
For the compound `CC12CCC(Br)C(C)(C)C1C(O)C=C1C(=O)OCC1O2` (stereo not drawn), the T/C is, setting by setting: (dose: 4.0 mg/kg/injection, schedule: Q01DX005 (ip), vehicle: Klucel (hydroxypropylcellulose) (HPC)) 102 % of control; (dose: 8.0 mg/kg/injection, schedule: Q01DX005 (ip), vehicle: Klucel (hydroxypropylcellulose) (HPC)) 96 % of control; (dose: 16.0 mg/kg/injection, schedule: Q01DX005 (ip), vehicle: Klucel (hydroxypropylcellulose) (HPC)) 102 % of control; (dose: 32.0 mg/kg/injection, schedule: Q01DX005 (ip), vehicle: Klucel (hydroxypropylcellulose) (HPC)) 102 % of control.
For `Cc1c(COC(=O)NC(C)C)c(COC(=O)NC(C)C)c2n1CS(=O)(=O)C2`, the T/C (dose: 25.0 mg/kg/injection, schedule: Q01DX005 (ip), vehicle: saline with Tween-80) was 159 % of control; the T/C under setting [13] was 184 % of control and 188 % of control; the T/C under setting [14] is 218 % of control.
Regarding `CC1=NCCN=C(C)C1N=Nc1ccccc1`, the T/C reads like this: under setting [1], 90 % of control; under setting [2], 90 % of control.
